Holding throughout (experiment): NCI-60 cell line screen, 48 h
Test [1] concerns CAKI-1 renal.
Test [2] has as its system DU-145 prostate.
Test [3] deals with HOP-62 NSCLC.
Test [4] deals with HS 578T breast.
Test [5] concerns M14 melanoma.
Test [6] concerns NCI-H460 lung.
The test system of test [7] is RXF 393 renal.
For test [8], the system named is SF-539 CNS.
Test [9] relates to SK-MEL-2 melanoma.
Test [10] relates to HCC-2998 colon.

Structures are written as SMILES. Several values for one entry are separate records, joined by “and”; a condition that tells them apart may be missing. Equal values may be shown once.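 Briefly, cells in 96-well plates were exposed to five compound concentrations for 48 h, and endpoints were estimated by linear interpolation. GI50 = concentration required for 50% inhibition of growth. TGI: concentration producing complete growth inhibition.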

For `Cn1c(N)c(N=Nc2ccc(S(N)(=O)=O)cc2)c(=O)n(C)c1=O`, the TGI in [1] was above 100 µM; in [2], above 100 µM; in test [3], above 100 µM; in [4] it was 99.1 µM; in [5] it was above 100 µM; in [6] it was above 100 µM. For the same compound, the TGI in test [7], in [8] and in test [9] was above 100 µM each time.
Consider `CN(C)CCCn1c2c(c3ccc([N+](=O)[O-])cc3c1=O)C(=O)c1ccccc1-2`, for which the GI50 in [1] is 3.07 µM; in [2], 5.61 µM; in [10], 15.3 µM; in [3], 5.67 µM; in test [4], 41.3 µM; in [5] it was 8.54 µM. Further, the results for the GI50 in test [6] and in [9] were 2.69 µM and above 100 µM, respectively. For the same compound, the TGI in [1] was 19.7 µM; in test [2] it was 29.8 µM; in test [10] it was 41.7 µM; in test [3], 20.8 µM; in [4], above 100 µM; in test [5], above 100 µM. Also, the TGI in test [6] is 19.4 µM; in test [9] it was above 100 µM.
In the case of `COc1ccc(/C=C2\CN(Cc3cn(CCCNc4ccnc5cc(Cl)ccc45)nn3)C/C(=C\c3ccc(OC)cc3)C2=O)cc1`, the GI50 in test [2] is 1.81 µM; in test [10] it was 13.8 µM; in [3] it was 19.4 µM; in [4], 6.27 µM; in [5], 4.15 µM; in test [6], 1.86 µM. Also, the GI50 is 5.48 µM in test [7], 13.9 µM in test [8] and 9.85 µM in test [9]. The TGI in test [2] was 3.3 µM; in [10], 27.9 µM; in [3], 35.5 µM; in [4], 29.7 µM; in test [5] it was 16.2 µM; in [6], 3.79 µM. Further, the values for the TGI in [7], in test [8] and in test [9] were 18.9 µM, 26.8 µM and 39.6 µM, respectively.
On to `COc1cccc2c1C(=N)c1c(O)c3c(c(O)c1C2=O)C[C@@](O)(C(C)=O)C[C@@H]3OC1CC(N)C(O)C(C)O1` (stereo partly specified), for which the TGI in test [1] was 1.37 µM and 1.03 µM and 4.86 µM; in test [2] it was 0.0618 µM; in test [10], 2.48 µM and 3.14 µM and 0.541 µM; in test [5] it was 4.58 µM and 1.59 µM; in test [6], 2.01 µM and 2.11 µM and 0.239 µM; in test [7] it was 2.95 µM and 3.8 µM and 0.872 µM. Moreover, the TGI in test [9] is 4.6 µM and 6.27 µM and 1.23 µM. In addition, the GI50 in test [2] was 0.018 µM; in test [5], 0.705 µM and 0.206 µM.
Turning to `Oc1c(Br)cc(Br)c2cccnc12`, the GI50 in [1] is 2.29 µM; in [2] it was 3.72 µM; in test [10], 3.61 µM; in [3], 3.57 µM; in test [4], 5.73 µM; in [5], 2.14 µM. For the same compound, the figures for the GI50 in test [6], in [7] and in test [8] were 2.94 µM, 4.13 µM and 3.17 µM, respectively. The TGI in test [1] was 6.79 µM; in test [2], 40.3 µM; in [10], 18.8 µM; in test [3], 30.8 µM; in [4] it was above 100 µM; in test [5], 5.11 µM. Moreover, the TGI in [6] amounted to 10.7 µM; in test [7] it was 23.3 µM; in test [8], 7.63 µM.
As to `C=CC(=O)N1CC[C@@H](Oc2nc(Nc3ccc(N4CCC(N5CCN(C)CC5)CC4)cc3)c(C(N)=O)nc2CC)C1`, the GI50 in [2], in [10], in [4], in test [5], in test [6] and in [7] was above 100 µM in each case. Also, the GI50 in test [8] and in test [9] was above 100 µM throughout. The TGI in test [2], in test [10], in test [4], in test [5], in test [6] and in test [7] was above 100 µM each time. For the same compound, the TGI in [8] and in test [9] was above 100 µM throughout.
On to `COc1ccc(C(=O)CC(Cl)=C(Cl)Cl)cc1`, for which the GI50 in [1] is 23.2 µM; in test [2], 31.5 µM; in test [3], 61.4 µM; in [4] it was above 100 µM; in [5], 27.5 µM; in test [6], above 100 µM. The values for the GI50 in test [7], in [8] and in [9] were 32 µM, 37.2 µM and 44.4 µM, respectively. Also, the TGI in test [1] is 53.5 µM; in test [2] it was above 100 µM; in [3] it was above 100 µM; in [4], above 100 µM; in test [5] it was 66.1 µM; in test [6], above 100 µM. Besides, the results for the TGI in test [7], in [8] and in [9] were 97.1 µM, above 100 µM and above 100 µM, respectively.
For the compound `Cn1c([N+](=O)[O-])cnc1/C=C1\Oc2ccc(Cl)cc2C1=O`, the GI50 in test [1] is 0.257 µM; in [2] it was 0.402 µM; in test [10] it was 2.02 µM; in test [3] it was 1.6 µM; in [4], 1.83 µM; in [5], 0.636 µM. Besides, the GI50 in [6] is 0.352 µM; in test [8], 1.62 µM; in [9], 0.901 µM. Besides, the TGI was 0.754 µM in [1]; 1.32 µM in test [2]; 4.68 µM in test [10]; 4.78 µM in test [3]; above 24.1 µM in [4]; 4.26 µM in test [5]. Moreover, the results for the TGI in [6], in test [8] and in [9] were 2.95 µM, 3.69 µM and 3.04 µM, respectively.
Take `Cn1c(N)cc(=O)nc1N`: the TGI in test [1], in test [2], in test [10], in [3], in test [4] and in [5] was above 100 µM each time. For the same compound, the TGI in test [6], in test [8] and in test [9] was above 100 µM each time.

Source of the values: PubChem BioAssay (NCI).
